From BindingDB's records for patent US20250163064 (Amgen, 2025)

Legend:
GTPase KRas [G12D,C118A] = GTPase KRas [G12D,C118A] (Homo sapiens, UniProt P01116, C118A/G12D); test: KRAS G12D Coupled Nucleotide Exchange Assay
Procedure: The assay plates were then read on a PerkinElmer En Vision Multilabel Reader, using AlphaScreen technology, and data were analyzed using a 4-parameter logistic model to calculate IC50 values.

kras g12d tr-fret = kras g12d tr-fret (Homo sapiens, UniProt P01116, G12D); test: KRAS G12D TR-FRET Assay
Sequence of kras g12d tr-fret (P01116 whole entry G12D): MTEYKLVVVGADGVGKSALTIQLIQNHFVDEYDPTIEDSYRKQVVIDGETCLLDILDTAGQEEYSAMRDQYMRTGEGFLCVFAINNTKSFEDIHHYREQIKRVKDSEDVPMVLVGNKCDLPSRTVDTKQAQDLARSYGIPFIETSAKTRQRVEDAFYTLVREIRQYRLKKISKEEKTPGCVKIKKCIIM
Procedure: The His-tagged KRAS G12D protein (Amgen) was diluted to 20 nM in Assay Buffer (20 mM HEPES, pH 7.4, 10 mM MgCl2, 50 mM NaCl, 0.1% BSA, 0.01% Tween-20, 10 μM GDP) and 2 μL was added to the appropriate wells of the 384-well plate. The plate was incubated for 30 minutes at rt. Biotinylated KRPep-2d substrate (Amgen) was diluted to […] in Assay Buffer and 2 AL was added to all wells and incubated for 1 hour at room temperature. Detection Reagent (0.4 nM LANCE Eu-W1024 Anti-6×His (Perkin Elmer AD0401), 5 nM streptavidin-d2 (Cisbio 610SADLA)) was prepared in Assay Buffer, then 4 AL was added to the plate and incubated for 1 h at rt.

Sequence of GTPase KRas [G12D,C118A] (P01116 whole entry G12D/C118A, looked up): as the sequence (P01116 whole entry G12D) above, with C118A counted along it

| IC50 (GTPase KRas [G12D,C118A]) | IC50 (kras g12d tr-fret) | Compound |
| --- | --- | --- |
| 5 nM | – | N#Cc1c(N)sc2c(F)ccc(-c3c(Cl)cc4c(N5CCOCC(=O)C5)nc(OC[C@@]56CCCN5C[C@H](F)C6)nc4c3F)c12 [US20250163064, Example 6] |
| 6 nM | 4 nM | N#Cc1c(N)sc2c(F)ccc(-c3c(Cl)cc4c(N5CCCC[C@@H](O)C5)nc(OC[C@@]56CCCN5C[C@H](F)C6)nc4c3F)c12 [US20250163064, Example 4] |
| 6 nM | 4 nM | N#Cc1c(N)sc2c(F)ccc(-c3c(Cl)cc4c(N5CC6CC(O)C(C6)C5)nc(OC[C@@]56CCCN5C[C@H](F)C6)nc4c3F)c12 (mixture of isomers) [US20250163064, Example 7] |
| 7 nM | 4 nM | N#Cc1c(N)sc2c(F)ccc(-c3c(Cl)cc4c(N5CCCC(C#N)CC5)nc(OC[C@@]56CCCN5C[C@H](F)C6)nc4c3F)c12 (some centres undefined) [US20250163064, Example 3] |
| 6 nM | 3 nM | N#Cc1c(N)sc2c(F)ccc(-c3c(Cl)cc4c(N5CCCC6(CNC(=O)O6)C5)nc(OC[C@@]56CCCN5C[C@H](F)C6)nc4c3F)c12 (some centres undefined) [US20250163064, Example 17] |
